Measured values reported in patent publication US10590392B2, “Generation of airway epithelial organoids from human pluripotent stem cells” (TRUSTEES OF BOSTON UNIVERSITY, priority 2017, dated 2020).
Entries after “also recorded” stand apart in the source; their conditions may differ.

Legend:
[1] = test system: 7XTCF-mCherry Wnt reporter in FG293 cells; test: Lentiviral 7XTCF-mCherry Wnt reporter dose-response in FG293 cells; conditions: 3 μM CHIR
[2] = test system: iPSC-derived NKX2-1GFP+ lung progenitors; test: Post-specification patterning of hPSC-derived lung progenitors, treatment day 15 to 19, RT-qPCR/flow cytometry of NKX2-1GFP+ cells; format: cell-based, human
Procedure: Measurement of mRNA expression by reverse transcriptase quantitative real time PCR (RT-qPCR) was performed as previously described(Longmire et al., 2012). Briefly, RNA was extracted from cells using a QIAzol Lysis Reagent (Qiagen, Venlo, Netherlands) and 150 ng of RNA was transcribed to cDNA using reverse transcription reagents (Applied Biosystems). Real time PCR (qPCR) was performed using TaqMan Fast Universal PCR Master Mix (ThermoFisher) and TaqMan (Applied Biosystems) reagents. The cDNA was diluted 1:3 and 2 μL of cDNA was added to each 25 μL (for Applied Biosystems StepOne 96-well System) or 12.5 μL (for Applied Biosystems QuantStudio7 384-well system) qPCR reaction. Each sample was run in technical triplicates and cycle (Ct) values were averaged between triplicates for analysis. Relative gene expression, normalized to 18S control, was calculated as fold change in 18S-normalized gene expression, compared to baseline, using the 2^(−ΔΔCT) method. Baseline, defined as fold change=1, was set to undifferentiated iPSC levels, or if undetected, a cycle number of 40 was assigned to allow fold change calculations. Adult lung control RNA was extracted from a normal lung biopsy sample. Primers were all TaqMan probes purchased from Applied Biosystems. Specifics of primers used are detailed in Table 1.
Day 14-16 cells from the lung progenitor directed differentiation protocol were harvested with 0.05% Trypsin-EDTA (Invitrogen) and replated in clumps in either Matrigel-coated tissue culture dishes in two-dimensional culture or in three-dimensional Matrigel drops. Matrigel drops were formed by resuspending cell clumps directly in undiluted Matrigel matrix, pipetting 50-100 μL into each well, and allowing the Matrigel/cell mixture to gel for 30 minutes at 37° C. Cell drops were then covered completely with growth medium.
Post-specification culture conditions were determined by the addition of growth factors to cSFDM. For patterning experiments, growth factors were added to a base media containing 10 ng/mL rhFGF10 (“Base”) and additional factors detailed in the results text. For concentrations of growth factors required for each experiment, see Table 2. Cells were additionally cultured with 10 μM Y-27632 (Tocris) for 24 hours after replating. Doses of growth factors were determined based on previously published directed differentiation protocols (Huang et al., 2013; Kurmann et al., 2015; Longmire et al., 2012) as well as dose-response experiments using 7XTCF lentiviral reporters for CHIR99021 (Figure S2d-e). […]
To test whether the inventors could efficiently induce a proximal vs distal program in iPSC-derived lung progenitors, the inventors modulated key developmental pathways beginning on day 15 of differentiation in our model system (FIG. 1C-1E), and monitored changes in SOX2 and SOX9 expression that are due to coordinated proximal vs distal patterning changes in purified NKX2-1^GFP+ cells within 4 days of treatment. At day 15, post-lung specification, the inventors cultured cells in a base media of “low dose” (10 ng/mL) FGF10 to promote proliferation without strongly inducing patterning(Volckaert et al., 2013). From this base media, the inventors stimulated the following pathways: Wnt signaling via the potent GSK3β inhibitor CHIR99021, hereafter CHIR; FGF signaling using FGF2 or high dose (100 ng/mL) FGF10; BMP signaling using BMP4; and TGFβ signaling using TGFβ

[3] = test system: iPSC-derived NKX2-1+ lung progenitors; test: Immunofluorescence and intracellular flow cytometry for NKX2-1, SOX2, SOX9, P63 coexpression at day 19; format: cell-based, human
Procedure: Cells were harvested for intracellular flow cytometry and fixed for 10-20 minutes at 37° C. in fresh 1.6% paraformeldehyde. Cells were permeabilized with Cell Permeabilization Buffer (eBioscience, San Diego, Calif.) containing 4% normal donkey serum (Sigma) in PBS and stained with primary antibody for NKX2-1 (Abcam # ab76013, rabbit EP1584Y, 1:100) or a conjugated antibody for SOX2 (BD #561506, PerCP-Cy5.5 conjugated, mouse O30-678, 1:100). Anti-NKX2-1 antibody was detected by secondary antibody stainings with either Cy3, Alexa Fluor 488, or Alexa Fluor 647 fluorophore-conjugated secondary antibodies (AffiniPure Donkey Anti-Rabbit IgG (H+L); 1:500; Jackson ImmunoResearch, West Grove, Pa.). Stained cells were analyzed on a FacsCalibur instrument (BD Biosciences, San Jose, Calif.) and data was analyzed with FlowJo software (Ashland, Oreg.).
Cells for immunofluorescence microscopy were cultured on glass coverslips (ThermoFisher). Cultured cells were fixed with fresh 4% paraformeldehyde and stained as described previously(Kurmann et al., 2015). Briefly, cells were permeabilized with 0.3% Triton-X (Sigma) for 10 minutes at room temperature then blocked with 4% normal donkey serum (Sigma) for 30 minutes at room temperature. Cells were incubated with primary antibodies (detailed in Key Resources Table 3) overnight at 4° C., washed, and incubated with secondary antibodies for 30-60 minutes at room temperature. All secondary antibodies were conjugated to Alexa Fluor 488, Cy3, or Alexa Fluor 647 (Jackson Immunoresearch, 1:500). After antibody staining, nuclei were stained with Hoescht dye (ThermoFisher, 1:500). Coverslips with cells were mounted on glass slides using Prolong Diamond Anti-Fade Mounting Reagent (ThermoFisher) and imaged on a Nikon (Tokyo, Japan) deconvolution microscope.
Quantification of nuclear colocalization was performed using Nikon NIS Elements software using the Object Count function. 3-5 areas from each slide were analyzed for each replicate. The total image area where NKX2-1 and SOX2 or P63 overlapped was divided by the area containing only the NKX2-1 stain.

[4] = test system: iPSC-derived anterior foregut endoderm cells; test: Lung specification from anterior foregut endoderm with or without CHIR (NKX2-1GFP flow cytometry, 7XTCF-mCherry reporter); format: cell-based, human
[5] = NKX2-1GFP+ sorted cells on day 19 after treatment day 15-19, vs base media (10 ng/mL FGF10), RT-qPCR
[6] = in response to CHIR withdrawal day 15-19, within 4 days

Cc1c[nH]c(-c2cnc(NCCNc3ccc(C#N)cn3)nc2-c2ccc(Cl)cc2Cl)n1 [CHIR, CHIR99021]
Wnt activation (lentiviral TCF reporter) [1]: induce Wnt activation | cytotoxicity [1]: without significant cytotoxicity | expression of Wnt signaling responsive genes LEF1, NKD1, AXIN2 ([2]; CHIR withdrawal day 15-19, day 19): reduced expression | lentiviral TCF-driven reporter (7XTCF-mCherry) expression ([2]; CHIR withdrawal day 15-19, day 19, NKX2-1+ cells): reduced | SCGB3A2 mRNA expression [2, 5]: decreased expression | SOX2 mRNA expression [2, 5]: significantly decreased | SOX9 mRNA expression [2, 5]: increased | expression of distal markers SOX9 and ETV5 [2, 6]: downregulated; also recorded: decreased expression | expression of proximal airway markers (SCGB3A2, TP63/P63, MUC5AC) [2, 6]: upregulated; also recorded: significantly increased expression | percentage of NKX2-1GFP+ cells by day 19 ([2]; withdrawal of CHIR from day 15 to 19, flow cytometry): significantly decreased percentage | cells co-expressing NKX2-1 and P63 ([3]; CHIR withdrawal day 15-19 (FGF10 alone) vs CHIR, immunofluorescence): increased frequencies; also recorded: significantly increased coexpression | percentage of cells coexpressing NKX2-1 and SOX2 ([3]; CHIR withdrawal day 15-19 vs CHIR): significantly higher percentage; also recorded: small but significant increase | NKX2-1+ population expressing SOX2 ([3]; CHIR-treated day 15-19, intracellular flow cytometry, without CHIR 68.0±4.1%): 54.9±5.5% | SOX2+ cells among NKX2-1+ cells ([3]; day 19, with CHIR (also without CHIR)): > 50% | NKX2-1+ cells that were SOX9+ ([3]; sustained CHIR day 15-19, triple immunostaining, 4 days after withdrawal of CHIR <40%): > 90% | rescue of NKX2-1GFP expression by later addition ([4]; cells differentiated without CHIR to day 15): could not be rescued | NKX2-1GFP expression during lung specification ([4]; presence of CHIR vs without, as early as 48 h after initiation of specification, maintained until at least day 15): significantly higher levels | 7TC (7XTCF-mCherry) reporter expression ([4]; specification media with CHIR vs vehicle alone, normalized to Ef1aL-mCherry): rapid upregulation
